Reference: patent US10344017B2, “Pyrrolcarboxamide derivatives for the inhibition of ERK5” (CANCER RESEARCH TECHNOLOGY LIMITED, priority 2014, dated 2019)

Molecular target: T1, ERK5 (Homo sapiens, UniProt Q13164)
T1 construct: made in house
Test: ERK5 IMAP assay (fluorescence polarisation)
Type: biochemical
Settings: average (e.g. geometric mean) where more than one data point; read-out: ERK5 IC50

T1 sequence (Q13164 whole entry): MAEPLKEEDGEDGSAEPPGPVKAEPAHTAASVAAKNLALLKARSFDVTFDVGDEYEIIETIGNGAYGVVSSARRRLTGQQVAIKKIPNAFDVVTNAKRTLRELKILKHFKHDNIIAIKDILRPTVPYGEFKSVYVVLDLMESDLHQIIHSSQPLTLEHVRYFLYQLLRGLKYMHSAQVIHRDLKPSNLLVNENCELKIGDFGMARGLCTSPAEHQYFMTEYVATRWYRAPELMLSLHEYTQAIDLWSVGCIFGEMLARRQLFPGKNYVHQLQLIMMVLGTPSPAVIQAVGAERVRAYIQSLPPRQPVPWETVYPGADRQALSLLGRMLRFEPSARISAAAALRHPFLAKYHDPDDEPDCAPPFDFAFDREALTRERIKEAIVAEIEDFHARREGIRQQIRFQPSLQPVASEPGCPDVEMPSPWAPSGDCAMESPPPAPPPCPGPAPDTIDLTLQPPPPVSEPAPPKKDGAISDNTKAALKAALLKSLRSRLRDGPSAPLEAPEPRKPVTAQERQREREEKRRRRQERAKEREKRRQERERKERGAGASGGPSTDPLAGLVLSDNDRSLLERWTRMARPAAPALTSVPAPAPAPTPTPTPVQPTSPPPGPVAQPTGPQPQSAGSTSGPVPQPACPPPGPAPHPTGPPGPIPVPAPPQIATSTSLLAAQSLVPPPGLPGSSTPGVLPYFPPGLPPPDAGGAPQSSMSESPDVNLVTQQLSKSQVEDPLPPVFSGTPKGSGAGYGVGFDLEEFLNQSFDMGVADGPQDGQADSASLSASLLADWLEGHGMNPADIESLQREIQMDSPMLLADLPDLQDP

Row | SMILES | IC50
1 | CN1CCC(NC(=O)c2cc(C(=O)c3c(F)ccc(F)c3Cl)c[nH]2)CC1 [Example 216, 4-(2-Chloro-3,6-difluorobenzoyl)-N-(1-methylpiperidin-4-yl)-1H-pyrrole-2-carboxamide] | 636 nM
2 | Cc1ccncc1NC(=O)c1cc(C(=O)c2c(F)cccc2Cl)c[nH]1 [Example 87, 4-(2-Chloro-6-fluorobenzoyl)-N-(4-methylpyridin-3-yl)-1H-pyrrole-2-carboxamide] | 1260 nM
3 | O=C(Nc1cnccc1N1CCCC1)c1cc(C(=O)c2c(Cl)ccc(Cl)c2F)c[nH]1 [Example 98, 4-(3,6-Dichloro-2-fluorobenzoyl)-N-(4-(pyrrolidin-1-yl)pyridin-3-yl)-1H-pyrrole-2-carboxamide] | 8710 nM
4 | CN1CCC(Nc2ncc(NC(=O)c3cc(C(=O)c4c(F)cccc4Cl)c[nH]3)cn2)CC1 [Example 23, 4-(2-Chloro-6-fluorobenzoyl)-N-(2-((1-methylpiperidin-4-yl)amino)pyrimidin-5-yl)-1H-pyrrole-2-carboxamide] | 93 nM
5 | Cc1ccc(F)c(C(=O)c2c[nH]c(C(=O)NC3CCN(C)CC3)c2)c1Cl [Example 177, 4-(2-Chloro-6-fluoro-3-methylbenzoyl)-N-(1-methylpiperidin-4-yl)-1H-pyrrole-2-carboxamide] | 472 nM
6 | CN(c1ncc(NC(=O)c2cc(C(=O)c3c(Cl)ccc(Cl)c3F)c[nH]2)cn1)C1CCNCC1 [Example 106, 4-(3,6-Dichloro-2-fluorobenzoyl)-N-(2-(methyl(piperidin-4-yl)amino)pyrimidin-5-yl)-1H-pyrrole-2-carboxamide] | 20 nM
7 | COc1ccc(Cl)c(C(=O)c2c[nH]c(C(=O)Nc3cnc(CC4CCN(C)CC4)nc3)c2)c1F [Example 247, 4-(6-Chloro-2-fluoro-3-methoxybenzoyl)-N-(2-((1-methylpiperidin-4-yl)methyl)pyrimidin-5-yl)-1H-pyrrole-2-carboxamide] | 18.1 nM
8 | O=C(Nc1ccnc(N2CCCC2)c1)c1cc(C(=O)c2c(F)cccc2Cl)c[nH]1 [Example 35, 4-(2-Chloro-6-fluorobenzoyl)-N-(2-(pyrrolidin-1-yl)pyridin-4-yl)-1H-pyrrole-2-carboxamide] | 523 nM
9 | Cc1cc(NC(=O)c2cc(C(=O)c3c(F)cccc3Br)c[nH]2)ccn1 [Example 137, 4-(2-Bromo-6-fluorobenzoyl)-N-(2-methylpyridin-4-yl)-1H-pyrrole-2-carboxamide] | 1080 nM
10 | COc1ccc(Cl)c(C(=O)c2c[nH]c(C(=O)Nc3cnn(C)c3)c2)c1F [Example 62, 4-(6-Chloro-2-fluoro-3-methoxybenzoyl)-N-(1-methyl-1H-pyrazol-4-yl)-1H-pyrrole-2-carboxamide] | 84.3 nM
11 | COCCOc1ccc(Cl)c(C(=O)c2c[nH]c(C(=O)Nc3cccnc3)c2)c1F [Example 258, 4-(6-Chloro-2-fluoro-3-(2-methoxyelhoxy)benzoyl)-N-(pyridin-3-yl)-1H-pyrrole-2-carboxamide] | 653 nM
12 | O=C(Nc1cccnc1)c1cc(C(=O)c2cc(Cl)ccc2F)c[nH]1 [Example 228, 4-(5-Chloro-2-fluorobenzoyl)-N-(pyridin-3-yl)-1H-pyrrole-2-carboxamide] | 2380 nM
13 | CCOc1ncccc1NC(=O)c1cc(C(=O)c2c(Cl)ccc(Cl)c2F)c[nH]1 [Example 85, 4-(3,6-Dichloro-2-fluorobenzoyl)-N-(2-ethoxypyridin-3-yl)-1H-pyrrole-2-carboxamide] | 6050 nM
14 | CS(=O)(=O)CCNc1ncc(NC(=O)c2cc(C(=O)c3c(Cl)ccc(Cl)c3F)c[nH]2)cn1 [Example 101, 4-(3,6-Dichloro-2-fluorobenzoyl)-N-(2-((2-(methylsulfonyl)ethyl)amino)pyrimidin-5-yl)-1H-pyrrole-2-carboxamide] | 115 nM
15 | CN1CCN(c2cc(NC(=O)c3cc(C(=O)c4c(Cl)ccc(Cl)c4F)c[nH]3)ccn2)CC1 [Example 37, 4-(3,6-Dichloro-2-fluorobenzoyl)-N-(2-(4-methylpiperazin-1-yl)pyridin-4-yl)-1H-pyrrole-2-carboxamide] | 36 nM
16 | Cn1cc(NC(=O)c2cc(C(=O)c3c(F)cccc3Cl)c[nH]2)cn1 [Example 269, 4-(2-Chloro-6-fluorobenzoyl)-N-(1-methyl-1H-pyrazol-4-yl)-1H-pyrrole-2-carboxamide] | 777 nM
17 | O=C(Nc1cccnc1)c1cc(C(=O)c2c(F)ccc(C(=O)O)c2F)c[nH]1 [Example 266, 2,4-difluoro-3-(5-(pyridin-3-ylcarbamoyl)-1H-pyrrole-3-carbonyl) benzoic Acid] | 1930 nM
18 | Cn1cc(NC(=O)c2cc(C(=O)c3c(Cl)ccc(O)c3F)c[nH]2)cn1 [Example 255, 4-(6-Chloro-2-fluoro-3-hydroxybenzoyl)-N-(1-methyl-1H-pyrazol-4-yl)-1H-pyrrole-2-carboxamide] | 736 nM
19 | COc1ccncc1NC(=O)c1cc(C(=O)c2c(F)cccc2Cl)c[nH]1 [Example 90, 4-(2-Chloro-6-fluorobenzoyl)-N-(4-methoxypyridin-3-yl)-1H-pyrrole-2-carboxamide] | 2190 nM
20 | O=C(Nc1ccc2cn[nH]c2c1)c1cc(C(=O)c2c(F)cccc2Cl)c[nH]1 [Example 156, 4-(2-Chloro-6-fluorobenzoyl)-N-(1H-indazol-6-yl)-1H-pyrrole-2-carboxamide] | 1540 nM
21 | COc1ccc(Cl)c(C(=O)c2c[nH]c(C(=O)Nc3cnn(C4CCN(CC(F)(F)F)CC4)c3)c2)c1F [Example 64, 4-(6-Chloro-2-fluoro-3-methoxybenzoyl)-N-(1-(1-(2,2,2-trifluoroethyl)piperidin-4-yl)-1H-pyrazol-4-yl)-1H-pyrrole-2-carboxamide] | 2990 nM
22 | COc1ccc(Cl)c(C(=O)c2c[nH]c(C(=O)Nc3cnn(Cc4cccnc4)c3)c2)c1F [Example 66, 4-(6-Chloro-2-fluoro-3-methoxybenzoyl)-N-(1-(pyridin-3-ylmethyl)-1H-pyrazol-4-yl)-1H-pyrrole-2-carboxamide] | 16.6 nM
23 | CCc1ccc(F)c(C(=O)c2c[nH]c(C(=O)Nc3cccnc3)c2)c1F [Example 162] | 1330 nM
24 | COc1ccc(Cl)c(C(=O)c2c[nH]c(C(=O)Nc3cnn(CC4CCN(C)CC4)c3)c2)c1F [Example 68, 4-(6-Chloro-2-fluoro-3-methoxybenzoyl)-N-(1-((1-methylpiperidin-4-yl)methyl)-1H-pyrazol-4-yl)-1H-pyrrole-2-carboxamide] | 19.9 nM
25 | CCCc1ccncc1NC(=O)c1cc(C(=O)c2c(Cl)ccc(Cl)c2F)c[nH]1 [Example 95, 4-(3,6-Dichloro-2-fluorobenzoyl)-N-(4-propylpyridin-3-yl)-1H-pyrrole-2-carboxamide] | 2820 nM
26 | O=C(NC1CCNCC1)c1cc(C(=O)c2c(F)cccc2C2CC2)c[nH]1 [Example 203, 4-(2-Cyclopropyl-6-fluorobenzoyl)-N-(piperidin-4-yl)-1H-pyrrole-2-carboxamide] | 5820 nM
27 | O=C(NC1CCNC1)c1cc(C(=O)c2c(F)cccc2F)c[nH]1 (stereo not shown) [Example 125, 4-(2,6-Difluorobenzoyl)-N-(pyrrolidin-3-yl)-1H-pyrrole-2-carboxamide] | 31000 nM
28 | O=C(Nc1ccnc(Cl)c1)c1cc(C(=O)c2c(F)cccc2Cl)c[nH]1 [Example 34, 4-(2-Chloro-6-fluorobenzoyl)-N-(2-chloropyridin-4-yl)-1H-pyrrole-2-carboxamide] | 2320 nM
